In US8071631B2, “Small molecule inhibitors of kynurenine-3-monooxygenase” (The J. David Gladstone Institutes, A Testamentary Trust …, priority 2006, dated 2011):

Tested on: kynurenine-3-monooxygenase (KMO)
Assay: KMO inhibition, radiometric assay per Erickson et al. (release of 3H2O from L-[3,5-3H]-kynurenine)
Assay type: biochemical
Settings: compound at 10 μM
Procedure: The KMO inhibiting activities of the compounds of the present invention were evaluated using standard methods. See Erickson et al., A Radiometric Assay for Kynurenine 3-Hydroxylase Based on the Release of ^3H2O During Hydroxylation of L-[3,5-^3H]-Kynurenine, Anal. Biochem. 1992, 205, 257-262, the disclosure of which is hereby incorporated by reference.
The IC50 value is the half maximal inhibitory concentration and represents the concentration of an inhibitor that is required for 50% inhibition of an enzyme activity and the percent inhibition measures the amount of enzyme activity inhibited at a given concentration of compound. If the administered compound is a prodrug then the prodrug may not inhibit KMO until it has metabolized appropriately.

SMILES | % inhibition at 10 μM
Cc1ccc(S(=O)(=O)Nc2nc(-c3ccccc3)ns2)cc1 [Compound A2, 4-methyl-N-[3-(phenyl)-1,2,4-thiadiazol-5-yl]benzenesulfonamide] | 77.9%
Cc1ccc(S(=O)(=O)Nc2nnc(-c3ccccc3)s2)cc1 [Compound A6, 4-methyl-N-[5-(phenyl)-1,3,4-thiadiazol-2-yl]benzenesulfonamide] | 71.59%
Cc1ccc(S(=O)(=O)Nc2cc(-c3ccccc3)no2)cc1 [Compound A14, 4-methyl-N-[3-(phenyl)-isoxazol-5-yl]benzenesulfonamide] | 30.74%
COc1ccc(S(=O)(=O)Nc2nsc(-c3ccc(Cl)cc3)n2)cc1OC [Compound A19, 3,4-dimethoxy-N-[5-(4-chlorophenyl)-1,2,4-thiadiazole-3-yl]benzenesulfonamide] | 68.6%
COc1ccc(S(=O)(=O)[N-]c2cccc(-c3ccccc3)c2)cc1OC.[K+] [Compound A22, Potassium 3,4-dimethoxy-N-[biphenyl-3-yl]benzenesulfonamide] | 19.57%
COc1ccc(-c2cnc(NS(=O)(=O)c3ccc(OC)c(OC)c3)nc2)cc1 [Compound A23, 3,4-dimethoxy-N-[5-(4-methoxyphenyl)-pyrimidine-2-yl]benzenesulfonamide] | 17.5%
COc1ccc(S(=O)(=O)Nc2ccc(-c3ccccc3)cn2)cc1OC [Compound A25, 3,4-dimethoxy-N-[5-(phenyl)-pyridine-2-yl]benzenesulfonamide] | 24.8%

The remaining lines, values ahead:

% inhibition at 10 μM | SMILES
73.61% | COc1ccc(S(=O)(=O)Nc2nc(-c3ccccc3)ns2)cc1OC [Compound A1, 3,4-dimethoxy-N-[3-(phenyl)-1,2,4-thiadiazol-5-yl]benzenesulfonamide]
60.03% | COc1ccc(S(=O)(=O)Nc2nnc(-c3ccccc3)s2)cc1OC [Compound A5, 3,4-dimethoxy-N-[5-(phenyl)-1,3,4-thiadiazol-2-yl]benzenesulfonamide]
17.82% | COc1ccc(S(=O)(=O)Nc2cc(-c3ccccc3)no2)cc1OC [Compound A13, 3,4-dimethoxy-N-[3-(phenyl)-isoxazol-5-yl]benzenesulfonamide]
